Laboratory results as given in patent US20100029554A1, “Composition and Methods for Treatment of Congestive Heart Failure” (Amylin Pharmaceuticals, Inc., priority 2006, published 2010).
Where no end group is shown, it is not given here.

Columns and labels:
[1] = tested on: Sprague Dawley rats with MI-induced CHF; test: MI-induced CHF animal model; type: in vivo, rat; details: subcutaneous infusion 11 weeks
Method: Sprague Dawley rats undergo left coronary artery ligation to induce myocardial infarction (MI) and subsequently congestive heart failure. Some rats undergo sham surgery. Starting two weeks after coronary ligation, rats are treated with GLP-1 (2.5 or 25 pmol/kg/min), [Leu^14]-Exendin-4 amide (1.67 or 5 pmol/kg/min) or vehicle for 11 weeks via subcutaneous infusion. Cardiac function and remodeling are assessed by echocardiography. At the end of study, rats undergo treadmill testing, hemodynamic measurements and fasting (12 hour fasting) insulin and glucose concentration were measured and the Homeostasis Model Assessment (HOMA), a major index for insulin resistance, is calculated. Peak Oxygen uptake during exercise is measured by indirect calorimetry.
Transthoracic Doppler echocardiography is performed. Briefly, short-axis images are obtained at the papillary muscle level and 2D guided M-mode tracing are recorded at a speed of 100 mm/s. Left ventricular end-diastolic (LVEDD) and end-systolic dimensions (LVESD) are measured according the American Society for Echocardiography leading-edge method. Left atrial volume (LAV) and ejection fraction (LVEF) are measured and calculated from the long-axis view.
Pulsed-wave Doppler spectra of mitral inflow are obtained from apical 5-chamber view. The sample volume is placed at the tip of the mitral leaflets and adjusted to the position of maximal velocity. The peak of early (E) and late filling waves (A) are measured and E/A ratio are calculated. […] FIG. 2A-C. […]
Designations “L” and “H” indicate low and high dose of drug, respectively. […] The end point for treadmill test is determined by rat's inability to keep the pace of treadmill and land on the electric shock grid for over 6 seconds. The exercise capacity (EC) is calculated as EC (kgm)=Body weight (kg)×degree of grade×running distance. Oxygen consumption (VO2), carbon dioxide production (VCO2) are measured as described. Within 1 minute after the treadmill test, plasma lactate and glucose are measured. The treadmill test is run and analyzed by one investigator who is blinded to the study.

NIH:Swiss mice = test: Food intake assay; type: in vivo, mouse; details: IP
Method: All mice (NIH:Swiss mice) are housed in a stable environment of 22 (±2)° C., 60 (±10)% humidity and a 12:12 light:dark cycle; with lights on at 0300. Mice are housed in groups of three in standard cages with ad libitum access to food (Teklad: LM 485; Madison, Wis.) and water except as noted, for at least two weeks before the experiments.
All experiments are conducted between the hours of 0700 and 0900. The mice are food deprived (food removed at 1530 hr from all animals on day prior to experiment). […] The food pellet is weighed at 30-minute, 1-hr, and 2-hr intervals to determine the amount of food eaten.
Significant test sample effects are identified by ANOVA (p<0.05). Where a significicant difference exists, test means are compared to the control mean using Dunnett's test. One-way ANOVA with Dunnett's post test is performed using GraphPad Prism version 3.01 for Windows, GraphPad Software, San Diego Calif.

NH/Swiss mice = test: Glucose lowering assay; type: in vivo, mouse; details: IP
Method: Female NH/Swiss mice (˜8-20 weeks of age), (Harlan, Indianapolis, Ind., USA), housed 3 mice per cage, are allowed ad libitum access to food and water until the start of the experiment. At two hours prior to treatment, access to food is restricted.
At the time of treatment, the tip of the tail is pricked with a needle to obtain 1 μl blood as a “pre-treatment” control blood sample. Immediately thereafter, each mouse is injected intraperitoneally (IP) with a test sample (1 nmol/kg or 2 nmol/kg) or 200 μl vehicle (10% DMSO saline). Additional blood samples are collected at 30, 60, 120, 180, and 240 minutes after injection.
Blood glucose is measured with a glucose oxidase biosensor (OneTouch® Ultra® (LifeScan, Inc., a Johnson & Johnson Company, Milpitas, Calif.)). At each time point, the effect of the test sample is expressed as the percent change in blood glucose relative to mice injected with vehicle only. Test samples and vehicle controls are also compared to their respective “pre-treatment” controls.
Significant test sample effects are identified by ANOVA (p<0.05). Where a significant difference existed, test means are compared to the control mean with Dunnett's post test using GraphPad Prism version 4.00 for Windows, GraphPad Software, San Diego Calif. USA, www.graphpad.com).

[2] = target: T1, GLP-1 receptors (RINm5f cell membranes) (Rattus norvegicus, UniProt P32301); test: Receptor binding assay, RBA GLP (RIN); details: [125I] human GLP-1 displacement
T1 construct: RINm5f cells expressing endogenous GLP-1 receptors; endogenous in cells; host or cells: RINm5f cell membranes
T1 sequence (P32301 22-463): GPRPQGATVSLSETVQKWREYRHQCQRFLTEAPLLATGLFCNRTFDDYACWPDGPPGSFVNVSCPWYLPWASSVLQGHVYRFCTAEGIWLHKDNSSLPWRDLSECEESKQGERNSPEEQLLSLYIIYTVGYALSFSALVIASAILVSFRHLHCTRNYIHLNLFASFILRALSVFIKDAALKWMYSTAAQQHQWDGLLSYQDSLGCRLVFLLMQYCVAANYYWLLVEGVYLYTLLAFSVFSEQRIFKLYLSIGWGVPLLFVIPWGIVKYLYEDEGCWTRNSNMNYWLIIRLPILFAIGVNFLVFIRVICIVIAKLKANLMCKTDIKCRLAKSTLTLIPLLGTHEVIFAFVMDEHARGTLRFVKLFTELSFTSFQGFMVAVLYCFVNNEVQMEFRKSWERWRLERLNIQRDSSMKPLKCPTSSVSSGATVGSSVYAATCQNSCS
Source text: The well contents are harvested onto 96 well glass fiber plates using a Perkin Elmer plate harvestor. Dried glass fiber plates are combined with scintillant and counted on a Perkin Elmer scintillation counter.

[3] = tested on: GLP/GIP/CT cyclase, RIN-m5F cells; test: GLP/GIP/CT Cyclase (RIN) assay; type: cell-based, rat; details: cAMP, values without **
Method: GLP/GIP/CT Cyclase (RIN) Assay
Five μl of serially diluted peptides are transferred to the 384-well assay plate. Rat pancreas insulinoma cells (RIN-m5F) are detached from a tissue culture flask with Versene and washed once in buffer. Then RIN-m5F cells are resusupended in buffer at 2.5×10^6 cells/ml. Then 10 μl cells (2.5×10^4 cells) are added to all wells of the assay plate and cells are stimulated at room temperature in the dark for 30 minutes. The reaction is terminated with 10 μl of lysis buffer and incubated at room temperature for 4 hrs in the dark. cAMP content is measured using Perkin Elmer AlphaScreen™ cAMP assay kit and results are read on a Perkin Elmer Fusion fluorometer. The assay is completed in 384-well plates at 25 microliter volumes.

Plasma stability = type: in vitro ADME; details: 20 μg/mL in plasma, 37° C., 0-5 hours
Method: To assess stability, the compound of interest is spiked into plasma at a concentration of 20 μg/mL. It is incubated at 37° C. for 0, 1, 2 3, 4, 5 hours in triplicate. At each time point, MeOH is added to a 96 well microtiter plate and then sample is added in a ratio of 1 part sample to 4 parts MeOH to quench the digestion reaction. Samples are mixed with multi-channel pipette or liquid handler. The plate is then centrifuged for 10 minutes and placed in an autosampler kept at 10° C. Samples are then injected into a mass spectrometer (API 3000, Applied Biosystems) equipped with an autosampler (Leap HTC Pal) and HPLC pumps (Shimadzu LC-10ADVP).

CC[C@H](C)[C@H](NC(=O)[C@H](Cc1ccccc1)NC(=O)[C@H](CCC(=O)O)NC(=O)[C@H](CCCCN)NC(=O)[C@H](C)NC(=O)[C@H](C)NC(=O)[C@H](CCC(N)=O)NC(=O)CNC(=O)[C@H](CCC(=O)O)NC(=O)[C@H](CC(C)C)NC(=O)[C@H](Cc1ccc(O)cc1)NC(=O)[C@H](CO)NC(=O)[C@H](CO)NC(=O)[C@@H](NC(=O)[C@H](CC(=O)O)NC(=O)[C@H](CO)NC(=O)[C@@H](NC(=O)[C@H](Cc1ccccc1)NC(=O)[C@@H](NC(=O)CNC(=O)[C@H](CCC(=O)O)NC(=O)[C@H](C)NC(=O)[C@@H](N)Cc1c[nH]cn1)[C@@H](C)O)[C@@H](C)O)C(C)C)C(=O)N[C@@H](C)C(=O)N[C@@H](Cc1c[nH]c2ccccc12)C(=O)N[C@@H](CC(C)C)C(=O)N[C@H](C(=O)N[C@@H](CCCCN)C(=O)NCC(=O)N[C@@H](CCCNC(=N)N)C(N)=O)C(C)C [Cmpd 3521, reference compound]
baseline plasma lactate level [1]: attenuated baseline plasma lactate level | left ventricle chamber size (LVEDD, LVESD) [1]: attenuates enlargement of left ventricle chamber size | insulin resistance / insulin sensitivity (fasting insulin, glucose, HOMA) ([1]; 12 hour fasting): attenuates insulin resistance and improves insulin sensitivity | FOOD INTAKE at 60 min (NIH:Swiss mice; dose 1 mg/kg): −27% | GLU LOWERING AUC240 @80 nmol/kg (NH/Swiss mice; 80 nmol/kg): −9% @

CC[C@H](C)[C@H](NC(=O)[C@H](CC(C)C)NC(=O)[C@H](Cc1c[nH]c2ccccc12)NC(=O)[C@H](CCC(=O)O)NC(=O)[C@@H](NC(=O)[C@H](Cc1ccccc1)NC(=O)[C@H](CC(C)C)NC(=O)[C@H](CCCNC(=N)N)NC(=O)[C@@H](NC(=O)[C@H](C)NC(=O)[C@H](CCCCN)NC(=O)[C@H](CCC(=O)O)NC(=O)[C@H](CCC(=O)O)NC(=O)[C@H](CC(C)C)NC(=O)[C@H](CCC(N)=O)NC(=O)[C@H](CCCCN)NC(=O)[C@H](CO)NC(=O)[C@H](CC(C)C)NC(=O)[C@H](CC(=O)O)NC(=O)[C@H](CO)NC(=O)[C@@H](NC(=O)[C@H](Cc1ccccc1)NC(=O)[C@@H](NC(=O)CNC(=O)[C@H](CCC(=O)O)NC(=O)CNC(=O)[C@@H](N)Cc1c[nH]cn1)[C@@H](C)O)[C@@H](C)O)C(C)C)[C@@H](C)CC)C(=O)N[C@@H](CCC(N)=O)C(=O)NCC(=O)NCC(=O)N1CCC[C@H]1C(=O)N[C@@H](CO)C(=O)N[C@@H](CCCCN)C(=O)N[C@@H](CCC(=O)O)C(=O)N[C@H](C(=O)N[C@H](C(=O)N[C@@H](CO)C(=O)O)[C@@H](C)CC)[C@@H](C)CC [Cmpd 5103]
FOOD INTAKE at 60 min (NIH:Swiss mice; dose 10 nmol/kg): −42% | GLU LOWERING AUC240 @2 nmol/kg (NH/Swiss mice; 2 nmol/kg, change in blood glucose relative to vehicle): −17%

CC[C@H](C)[C@H](NC(=O)[C@@H]1CCCN1C(=O)[C@@H](NC(=O)CNC(=O)CNC(=O)CNC(=O)[C@H](CCCNC(=N)N)NC(=O)CNC(=O)[C@H](CCCCN)NC(=O)[C@@H](NC(=O)[C@H](CC(C)C)NC(=O)[C@H](Cc1c[nH]c2ccccc12)NC(=O)[C@H](C)NC(=O)[C@@H](NC(=O)[C@H](Cc1ccccc1)NC(=O)[C@H](CCC(=O)O)NC(=O)[C@H](CCCCN)NC(=O)[C@H](C)NC(=O)[C@H](C)NC(=O)[C@H](CCC(N)=O)NC(=O)CNC(=O)[C@H](CCC(=O)O)NC(=O)[C@H](CC(C)C)NC(=O)[C@H](Cc1ccc(O)cc1)NC(=O)[C@H](CO)NC(=O)[C@H](CO)NC(=O)[C@@H](NC(=O)[C@H](CC(=O)O)NC(=O)[C@H](CO)NC(=O)[C@@H](NC(=O)[C@H](Cc1ccccc1)NC(=O)[C@@H](NC(=O)CNC(=O)[C@H](CCC(=O)O)NC(=O)[C@H](C)NC(=O)[C@@H](N)Cc1c[nH]cn1)[C@@H](C)O)[C@@H](C)O)C(C)C)[C@@H](C)CC)C(C)C)[C@@H](C)CC)C(N)=O [Cmpd 4957]
IC50 [2]: 0.1 nM | EC50 [3]: 0.51 nM

HGEGTFTSDVTEYLEEEAVRLFIEWLKQGGPSSGAPPPS-NH2 [Cmpd 5129]
plasma stability as compared to native GLP-1 (Plasma stability): increased plasma stability | plasma stability as compared to native GLP-1 (Plasma stability; second, narrower list of b152): increased plasma stability | IC50 [2]: 3 nM | EC50 [3]: 1.09 nM
